Assay results: patent publication US5324832A, “Muscarinic antagonists” (priority 1991, dated 1994)

Legend:
[1] = molecular target: T1, m1 muscarinic receptors (Rattus norvegicus, UniProt P08482); test: Irreversible labelling: [3H]NMS saturation of treated vs. control rat forebrain membranes; assay type: binding; details: in words
T1 sequence (P08482 1-460): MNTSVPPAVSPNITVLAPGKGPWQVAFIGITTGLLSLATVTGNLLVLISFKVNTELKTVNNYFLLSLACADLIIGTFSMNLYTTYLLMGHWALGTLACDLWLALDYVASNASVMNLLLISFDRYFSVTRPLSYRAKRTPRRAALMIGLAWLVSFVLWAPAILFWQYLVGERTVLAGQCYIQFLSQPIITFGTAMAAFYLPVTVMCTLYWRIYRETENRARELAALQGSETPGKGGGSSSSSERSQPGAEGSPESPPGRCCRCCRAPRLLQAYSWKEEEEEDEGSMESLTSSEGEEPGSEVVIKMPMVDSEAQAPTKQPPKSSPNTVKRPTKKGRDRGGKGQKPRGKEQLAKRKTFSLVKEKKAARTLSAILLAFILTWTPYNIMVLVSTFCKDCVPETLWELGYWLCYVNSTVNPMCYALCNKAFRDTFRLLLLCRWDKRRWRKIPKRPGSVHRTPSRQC
Description: When incubated with membranes from rat forebrain tissue […] followed by thorough washing, compound 41a caused an unrecoverable reduction in the Bmax at m1 receptors of 90-95% (from saturation of treated vs. control membranes with [3H]NMS).

[2] = system: gastric acid production; details: clinical; in words; cited from earlier work

**Q.** With `O=C1Nc2cccnc2N(C(=O)CN2CCN(CCCCCCCCCCNC(=S)Nc3cccc(N=C=S)c3)CC2)c2ccccc21` [Compound 41a, n=10, 5,11-Dihydro-11-[[4-[10-[(3-isothiocyanatophenyl)aminothiocarbonylamino]decyl]-1-piperazinyl]acetyl]-6H-pyrido[2,3-b][1,4]-benzodiazepine-6-one] as the molecule, how does the “chemical affinity labelling of m1 receptors” value [1] read?
**A.** The value was “potent chemical affinity label for ml receptors”.

**Q.** With `CN1CCN(CC(=O)N2c3ccccc3C(=O)Nc3cccnc32)CC1` [pirenzepine] as the molecule, how does the “inhibition of gastric acid production (literature)” value [2] read?
**A.** The value was “useful clinically in the inhibition of gastric acid production”.
